According to US20260224524A1, “A PHARMACEUTICAL COMPOSITION TARGETING MUTANT P53 AND HER2” (DR DOZO LABORATORIES, priority 2023, published 2026):
Values after ≈ are worked out from the molar mass of the structure shown.

Assays:
Format in all cases: cell-based
lung cancer cell = test: Cell viability MTT assay of SACC fractions on lung cells; settings: 24 h, read-out: inhibitory concentrations, lung cancer cell growth
Procedure: The effect of SACC fractions (peak 2, peak 3, peak 4 and peak 5) on viability of lung cells was determined by MTT assay.
Cells were seeded in 96 wells plate at a density of 1×10^4 per well in 200 μL of respective complete culture medium containing 10% FBS and 1% antibiotics. After 70% confluency, cells were treated with the respective doses (indicated in the graph) of SACC and its fraction in complete culture medium for 24 h. After incubation for a specified time at 37° C. in a humidified incubator, dye MTT (5 mg/mL in PBS; diluted in 10 mL of serum-free medium) was added to each well and incubated for 2 h, after which the plate was centrifuged at 1,000 rpm for 5 min at 4° C. After careful removal of the medium, 0.1 mL buffered DMSO was added to each well. The absorbance was recorded on a microplate reader at the wavelength of 540 nm. The effect SACC and its fraction on cell growth inhibition was assessed as percent cell viability, where vehicle-treated cells were taken as 100% viable.

[1] = tested on: Human Breast Cancer Cell Line MDA-MB-231; test: Growth inhibition (% control growth, LC50, TGI, GI50) MDA-MB-231
Procedure: The therapeutic effect of […] (peak 5) and SA2 (peak 4) is evaluated against human […] cancer cell line MDA-MB-231 by calculating the percentage growth inhibition, drug concentration of test compound needed to inhibit cell growth by 50% (GI50) values.
The therapeutic effect of SACC is evaluated against human […] cancer cell lines MDA-MB-231 by calculating the percentage growth inhibition, drug concentration of test compound needed to inhibit cell growth by 50% (GI50) values.

[2] = tested on: Human Pancreatic Cancer Cell Line Mia-Pa-Ca-2; test: Growth inhibition (% control growth, LC50, TGI, GI50) Mia-Pa-Ca-2; settings: Mia-Pa-Ca-2
Procedure: The therapeutic effect of SA1 (peak 5) and SA2 (peak 4) is evaluated against human pancreatic cancer cell line Mia-Pa-Ca-2 by calculating the percentage growth inhibition, drug concentration of test compound needed to inhibit cell growth by 50% (GI50) values.
The therapeutic effect of SACC is evaluated against human […] cancer cell line Mia-Pa-Ca-2 by calculating the percentage growth inhibition, drug concentration of test compound needed to inhibit cell growth by 50% (GI50) values.

[3] = tested on: Human Breast Cancer Cell Line MDA-MB-231; test: Growth inhibition (% control growth, LC50, TGI, GI50) MDA-MB-231; settings: Molar drug concentrations calculated from graph
[4] = tested on: Human Lung Cancer Cell Line A-549; test: Growth inhibition (% control growth, LC50, TGI, GI50) A-549; settings: A-549
Procedure: The therapeutic effect of SA1 (peak 5) and SA2 (peak 4) is evaluated against human lung cancer cell line A-549 by calculating the percentage growth inhibition, drug concentration of test compound needed to inhibit cell growth by 50% (GI50) values.
The therapeutic effect of SACC is evaluated against human lung cancer cell line A-549 by calculating the percentage growth inhibition, drug concentration of test compound needed to inhibit cell growth by 50% (GI50) values.

## O=C1CC2=CC(O)=CC(=O)C2=CO1 (single isomer, unassigned) [peak 2, 6-hydroxy-3H-isochromene-3, 8(4H)-dione]
Lung cancer cell
  IC50: 1.04 µg/mL (≈ 5.84 µM)

## Cc1ccc2[nH]cc(C(=O)O)c2c1 (single isomer, unassigned) [peak 3, 5-methyl-1H-indole-3-carboxylic acid]
Lung cancer cell
  IC50: 1.06 µg/mL (≈ 6.05 µM)

## Cc1ccc(O)oc1=O (single isomer, unassigned) [SA2 (peak 4), 6-hydroxy-3-methyl-2H-pyran-2-one]
[1]; 10^−4M, Average Values
  % Control Growth: 27.9%
[1]; 10^−4M, Experiment 1
  % Control Growth: 50.1%
[1]; 10^−4M, Experiment 2
  % Control Growth: 18.1%
[1]; 10^−4M, Experiment 3
  % Control Growth: 15.5%
[1]; 10^−5M, Average Values
  % Control Growth: 47.2%
[1]; 10^−5M, Experiment 1
  % Control Growth: 45.5%
[1]; 10^−5M, Experiment 2
  % Control Growth: 42.0%
[1]; 10^−5M, Experiment 3
  % Control Growth: 54.1%
[1]; 10^−6M, Average Values
  % Control Growth: 62.8%
[1]; 10^−6M, Experiment 1
  % Control Growth: 68.2%
[1]; 10^−6M, Experiment 2
  % Control Growth: 59.7%
[1]; 10^−6M, Experiment 3
  % Control Growth: 60.5%
[1]; 10^−7M, Average Values
  % Control Growth: 57.0%
[1]; 10^−7M, Experiment 1
  % Control Growth: 81.0%
[1]; 10^−7M, Experiment 2
  % Control Growth: 42.6%
[1]; 10^−7M, Experiment 3
  % Control Growth: 47.3%
[1]; Homo sapiens, Molar drug concentrations calculated from graph
  GI50: 2.38 µg/mL (≈ 18.9 µM)
[2]; Homo sapiens, MIA PaCa-2, Molar drug concentrations calculated from graph
  GI50: 0.000301 µg/mL (≈ 0.00239 µM)
[2]; 10^−4M, Average Values
  % Control Growth: 40.5%
[2]; 10^−4M, Experiment 1
  % Control Growth: 40.0%
[2]; 10^−4M, Experiment 2
  % Control Growth: 36.6%
[2]; 10^−4M, Experiment 3
  % Control Growth: 45.0%
[2]; 10^−5M, Average Values
  % Control Growth: 100.5%
[2]; 10^−5M, Experiment 1
  % Control Growth: 76.9%
[2]; 10^−5M, Experiment 2
  % Control Growth: 116.3%
[2]; 10^−5M, Experiment 3
  % Control Growth: 108.3%
[2]; 10^−6M, Average Values
  % Control Growth: 112.4%
[2]; 10^−6M, Experiment 1
  % Control Growth: 114.3%
[2]; 10^−6M, Experiment 2
  % Control Growth: 115.6%
[2]; 10^−6M, Experiment 3
  % Control Growth: 107.5%
[2]; 10^−7M, Average Values
  % Control Growth: 102.1%
[2]; 10^−7M, Experiment 1
  % Control Growth: 95.4%
[2]; 10^−7M, Experiment 2
  % Control Growth: 111.8%
[2]; 10^−7M, Experiment 3
  % Control Growth: 99.0%
[2]; Molar drug concentrations calculated from graph
  TGI: 0.1054 µg/mL (≈ 0.836 µM)
Lung cancer cell
  IC50: 1.02 µg/mL (≈ 8.09 µM)
[3]
  TGI: 0.1727 µg/mL (≈ 1.37 µM)
[4]; 10^−4M, Average Values
  % Control Growth: 54.9%
[4]; 10^−4M, Experiment 1
  % Control Growth: 54.4%
[4]; 10^−4M, Experiment 2
  % Control Growth: 51.7%
[4]; 10^−4M, Experiment 3
  % Control Growth: 58.6%
[4]; 10^−5M, Average Values
  % Control Growth: 74.8%
[4]; 10^−5M, Experiment 1
  % Control Growth: 81.5%
[4]; 10^−5M, Experiment 2
  % Control Growth: 72.0%
[4]; 10^−5M, Experiment 3
  % Control Growth: 70.9%
[4]; 10^−6M, Average Values
  % Control Growth: 77.4%
[4]; 10^−6M, Experiment 1
  % Control Growth: 74.0%
[4]; 10^−6M, Experiment 2
  % Control Growth: 80.1%
[4]; 10^−6M, Experiment 3
  % Control Growth: 78.2%
[4]; 10^−7M, Average Values
  % Control Growth: 77.3%
[4]; 10^−7M, Experiment 1
  % Control Growth: 80.0%
[4]; 10^−7M, Experiment 2
  % Control Growth: 76.9%
[4]; 10^−7M, Experiment 3
  % Control Growth: 74.9%
[4]; Homo sapiens, A549, Molar drug concentrations calculated from graph
  GI50: 0.0034 µg/mL (≈ 0.0269 µM)
